Assay results reported in patent US20120245188A1, “METHODS OF TREATING MEMORY LOSS AND ENHANCING MEMORY PERFORMANCE” (priority 2010, published 2012).

Key:
[1] = test system: adjuvant-induced arthritis; conditions: 10 mg/kg, administered orally, rats; cited from earlier work
cultured neurons = conditions: cited from earlier work
β form of p38 MAPK = β form of p38 MAPK (Homo sapiens, UniProt Q15759); conditions: cited from earlier work
[2] = test system: seventeen month old male Fischer-344 rats; test: Working memory, Delay Match to Sample water maze in aged rats; format: in vivo, rat; conditions: high dose 30 mg/kg/day i.p.
Procedure: Other methods of evaluating spatial and visual working memory include Delayed-Match to Sample (DMS) asymmetrical 3-choice task, which is illustrated in detail in the Example section. The visible platform task was used to confirm that animals have the ability to perform the procedural components of water-escape maze testing, including the visual and motoric capacities necessary to swim towards and climb onto a platform. The role of SB239063 on spatial memory performance was tested in the aged rat model. […] Dosing was initiated three days prior to testing and continued throughout the experiment until sacrifice (FIG. 1). Rats were tested on a maze battery including the spatial reference memory Morris maze (MM), and a delay match to sample task (DMS) where the spatial location of the platform needed to be updated on a daily basis, thereby evaluating short term memory (FIG. 2). […] There was a significant Trial×Treatment Interaction in the process, and the swim distance F(5,10)=2.298 (p=0.0151). The high-dose receiving group learned the task faster, indicated by committing fewer errors compared to vehicle-only rats on trial 3 (FIG. 4B).

moderate stroke = conditions: oral administration of 15 mg/kg before moderate stroke; cited from earlier work
[3] = test system: seventeen month old male Fischer-344 rats; test: Spatial reference memory, Morris Water Maze in aged rats; format: in vivo, rat
Text: Working memory can also be tested using the Morris water maze. In general, the Morris water maze is a large round tub of opaque water with […] located 1-2 cm under the water's surface. The rat is placed on a start platform. The rat swims around until it finds the other platform to stand on. External cues, such as patterns or the standing researcher, are placed around the pool in the same spot every time to help the rat learn where the end platform is. The researcher measures how long it takes for a rat to find hidden platform, by changing or moving and using different spatial cues. The Morris water maze tests the spatial learning, cognitive maps and memory. The rats under the Morris water maze test may be given particular drugs or treatment conditions to see if these impair or enhance short-term memory. In one embodiment, the subject may be administered a pharmaceutical composition comprising SB 239063. The role of SB239063 on spatial memory performance was tested in the aged rat model. […] Dosing was initiated three days prior to testing and continued throughout the experiment until sacrifice (FIG. 1). Rats were tested on a maze battery including the spatial reference memory Morris maze (MM), and a delay match to sample task (DMS) where the spatial location of the platform needed to be updated on a daily basis, thereby evaluating short term memory (FIG. 2). Spatial Reference Memory—Morris Water Maze: For the Morris Water Maze, 6 trials per day for 3 days were carried out. […] Mean (±Standard Error) swim distance across all days of testing for all rats are depicted in FIG. 3.

Sequence of β form of p38 MAPK (Q15759 whole entry): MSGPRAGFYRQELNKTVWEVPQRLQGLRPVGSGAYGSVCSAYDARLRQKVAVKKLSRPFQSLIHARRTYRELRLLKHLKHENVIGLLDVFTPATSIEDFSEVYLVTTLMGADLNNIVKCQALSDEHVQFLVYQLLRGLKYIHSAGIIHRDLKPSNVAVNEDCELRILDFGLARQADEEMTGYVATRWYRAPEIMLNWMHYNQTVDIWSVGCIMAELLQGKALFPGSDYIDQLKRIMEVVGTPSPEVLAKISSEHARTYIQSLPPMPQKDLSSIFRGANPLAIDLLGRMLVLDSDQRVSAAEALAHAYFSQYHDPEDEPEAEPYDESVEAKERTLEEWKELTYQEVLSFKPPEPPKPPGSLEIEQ

Question: Which results are given for COc1nccc(-c2c(-c3ccc(F)cc3)ncn2[C@H]2CC[C@H](O)CC2)n1 [SB239063, trans-1-(4-hydroxycyclohexyl)-4-(4-fluorophenyl)-5-(2-methoxypyridimidin-4-yl)imidazole]?
Answer: reduction of adjuvant-induced arthritis [1]: 51%; protection against mild excitotoxic neuronal injury caused by NMDA (cultured neurons; NMDA (N-methyl D-aspartate)): protect against mild excitotoxic neuronal injury; protection against cell death induced by oxygen glucose deprivation (OGD) or magnesium deprivation (cultured neurons; cultured neurons): substantial protection against cell death; inhibition of β form of p38 MAPK (β form of p38 MAPK): inhibits; Three Choice Task errors on trial 3 compared to vehicle-only rats ([2]; Fisher post hoc p=0.011): fewer errors; performance on DMS compared to vehicle-treated animals (learning of the new platform location) ([2]; p=0.01): enhanced performance; reduction of infarct volume (moderate stroke): 48%; reduction of neurological deficits (moderate stroke): 42%; localization to the platformed quadrant during the probe trial by the last day of testing ([3]; all groups (15 and 30 mg/kg), p<0.005): localized to the platformed quadrant; linear trend for swim distance scores across days ([3]; high dose 30 mg/kg daily i.p., F(1,10)=1.531, p=0.244): did not show a linear trend; Morris Water Maze spatial reference memory performance as days progressed ([3]; high dose 30 mg/kg/day i.p.): impaired; linear trend for swim distance scores across days ([3]; low dose 15 mg/kg daily i.p., F(1,10)=19.253, p=0.001): showed a significant linear trend; Morris Water Maze spatial reference memory performance as days progressed ([3]; low dose 15 mg/kg/day i.p.): exhibited significant learning
